Reference: patent US7125572B2, “Tyrosinase inhibitor extract” (Kaoder Industry Company, Ltd., priority 2004, dated 2006)

Tested on: tyrosinase
Assay: Determination of tyrosinase inhibitory effect (L-DOPA substrate, absorbance at 475 nm)
Settings: comparison with arbutin, determined in a way described in Example 4
Procedure: The activity of tyrosinase was determined at the wavelength of 475 nm and calculated from the decrease of the absorbance.
35 μl of the tyrosinase inhibitor extract of Example 1 and 35 μl of 80% propylene glycol were used as the test and control samples. The inhibition percent of the tyrosinase activity was calculated by the equation: Inhibition percentage (%) of the tyrosine activity=[1−(Absorbance of experiment sample)/(Absorbance of control sample)]×100%. The DOPA and tyrosinase solution (1000 units/ml in 16.7 mM potassium phosphate butter) used in the following experiments were purchased from Sigma Corp., USA.
15.1 of tyrosinase solutions was added to each (35 μl) of six samples of tyrosinase inhibitor extract of Example 1. The resultant solutions were maintained at 25. for 0, 1, 2, 3, 4, 5, 6 hours, respectively. 450.1 of L-DOPA substrate was added to each of the solutions.
15.1 of tyrosinase solutions was added to each (35 μl) of three samples of tyrosinase inhibitor extract of Example 1. The resultant solutions were maintained at 25., 37. and 50. for 1 hour, respectively. 450.1 of L-DOPA substrate was added to each of the solutions.
15.1 of tyrosinase solutions was added to each (35 μl) of five samples of tyrosinase inhibitor extract of Example 1. The resultant solutions were maintained at pH 4, 5, 6, 7 and 8 for 1 hour, respectively. […]

- % inhibitory Activity: 32+−0.0%
SMILES: OC[C@H]1O[C@@H](Oc2ccc(O)cc2)[C@H](O)[C@@H](O)[C@@H]1O [Arbutin]
